Assay results from the supplement of paper PMC10883282.
± gives the standard deviation of the averaged measurements.

Tested on: KHOS-240S
Assay: relative viability vs DMSO control (72 h) (fraction); higher = more viable cells
Outline: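 Relative viability is percent growth read by ATPLite and averaged over up to triplicate wells. Sarcoma cells were seeded in 384-well plates to reach 80–90% confluence and given 2.5 µl of serially diluted compound after 24 h, from source plates of 10 mM to 0.0002 mM. Incubation lasted 72 h at 37 °C, 5% CO2, with 0.1% DMSO vehicle and a 5 µM positive control, and the data were rescaled so 1 equals full and 0 equals none.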

| Compound | relative viability (0.00017 µM) | relative viability (0.00051 µM) | relative viability (0.00152 µM) | relative viability (0.00457 µM) | relative viability (0.01372 µM) | relative viability (0.04115 µM) | relative viability (0.1235 µM) | relative viability (0.3704 µM) | relative viability (1.111 µM) | relative viability (3.333 µM) | relative viability (10 µM) |
| --- | --- | --- | --- | --- | --- | --- | --- | --- | --- | --- | --- |
| O=C(Nc1cnn2ccc(N3CCC[C@@H]3c3cc(F)ccc3F)nc12)N1CC[C@H](O)C1 [Larotrectinib] | 1.1 ± 0.045 | 1.07 ± 0.064 | 1.1 ± 0.091 | 1.07 ± 0.093 | 1.05 ± 0.066 | 1.05 ± 0.02 | 1.09 ± 0.066 | 1.09 ± 0.068 | 1.06 ± 0.06 | 1.07 ± 0.079 | 1.05 ± 0.082 |
| COCc1c(-c2cc3cc(C)cc(OC)c3s2)c2c(N)ncnn2c1CN1CCNC(=O)C1 [Rogaratinib] | 1.04 ± 0.015 | 1.07 ± 0.028 | 1.07 ± 0.046 | 1.07 ± 0.061 | 1.03 ± 0.011 | 0.995 ± 0.053 | 0.9 ± 0.025 | 0.821 ± 0.019 | 0.783 ± 0.045 | 0.671 ± 0.046 | 0.511 ± 0.036 |
| Cn1cnc2c(F)c(Nc3ccc(Br)cc3F)c(C(=O)NOCCO)cc21 [Binimetinib] | 1.03 ± 0.053 | 1.06 ± 0.054 | 1.07 ± 0.067 | 1.06 ± 0.052 | 0.998 ± 0.02 | 0.975 ± 0.027 | 0.922 ± 0.04 | 0.895 ± 0.069 | 0.855 ± 0.0094 | 0.737 ± 0.027 | 0.637 ± 0.045 |
| Cn1cc(-c2cc3c(N4CCN(c5ncc([C@@](C)(N)c6ccc(F)cc6)cn5)CC4)ncnn3c2)cn1 [Avapritinib] | 1.03 ± 0.022 | 1.025 ± 0.0056 | 1 ± 0.039 | 0.992 ± 0.038 | 1.02 ± 0.033 | 1.01 ± 0.014 | 0.965 ± 0.024 | 0.943 ± 0.021 | 0.84 ± 0.026 | 0.783 ± 0.027 | 0.656 ± 0.025 |
| C[C@]1(O)C[C@@H](c2nc(-c3ccc4ccc(-c5ccccc5)nc4c3)c3c(N)nccn32)C1 [Linsitinib] | 1.08 ± 0.029 | 1.1 ± 0.054 | 1.08 ± 0.026 | 1.07 ± 0.045 | 1.07 ± 0.025 | 1.07 ± 0.048 | 0.992 ± 0.018 | 0.917 ± 0.018 | 0.911 ± 0.026 | 0.845 ± 0.036 | 0.56 ± 0.0069 |
| Cc1cc(Nc2ncnc3ccc(NC4=NC(C)(C)CO4)cc23)ccc1Oc1ccn2ncnc2c1 [Tucatinib] | 1.06 ± 0.019 | 1.11 ± 0.022 | 1.09 ± 0.036 | 1.07 ± 0.031 | 1.075 ± 0.0081 | 1.09 ± 0.03 | 1.08 ± 0.025 | 1.07 ± 0.027 | 1.05 ± 0.054 | 1.01 ± 0.022 | 0.953 ± 0.051 |
| Nc1cc(C(F)(F)F)c(-c2cc(N3CCOCC3)nc(N3CCOCC3)n2)cn1 [Buparlisib] | 1.039 ± 0.01 | 1.02 ± 0.024 | 1.04 ± 0.012 | 1.02 ± 0.033 | 1.03 ± 0.032 | 1.03 ± 0.083 | 0.989 ± 0.023 | 0.9151 ± 0.008 | 0.708 ± 0.024 | 0.114 ± 0.0036 | 0.0584 ± 0.0016 |
| C[C@@H]1CCN(C(=O)CC#N)C[C@@H]1N(C)c1ncnc2[nH]ccc12 [Tofacitinib] | 1.08 ± 0.068 | 1.05 ± 0.038 | 1.08 ± 0.062 | 1.09 ± 0.069 | 1.05 ± 0.031 | 1.05 ± 0.034 | 1.06 ± 0.08 | 1.03 ± 0.043 | 1.01 ± 0.076 | 0.977 ± 0.021 | 0.853 ± 0.075 |
| COc1cc2/c(=N/c3ccc(Br)cc3F)nc[nH]c2cc1OCC1CCN(C)CC1 [Vandetanib] | 1.03 ± 0.078 | 1.03 ± 0.048 | 1.02 ± 0.042 | 1.05 ± 0.048 | 1.05 ± 0.06 | 1.05 ± 0.045 | 0.99 ± 0.022 | 1.01 ± 0.026 | 0.908 ± 0.014 | 0.4145 ± 0.0025 | 0.0298 ± 0.0027 |
| CCCS(=O)(=O)Nc1ccc(F)c(C(=O)c2c[nH]c3ncc(-c4ccc(Cl)cc4)cc23)c1F [Vemurafenib] | 1.09 ± 0.063 | 1.07 ± 0.032 | 1.09 ± 0.049 | 1.08 ± 0.024 | 1.08 ± 0.026 | 1.07 ± 0.034 | 1.07 ± 0.033 | 1.07 ± 0.02 | 1.075 ± 0.0032 | 1.01 ± 0.02 | 0.708 ± 0.046 |
| C=CC(=O)N1CCC([C@@H]2CCNc3c(C(N)=O)c(-c4ccc(Oc5ccccc5)cc4)nn32)CC1 [Zanubrutinib] | 0.952 ± 0.026 | 0.946 ± 0.032 | 0.962 ± 0.02 | 0.9655 ± 0.007 | 0.936 ± 0.043 | 0.962 ± 0.021 | 0.957 ± 0.022 | 0.935 ± 0.037 | 0.901 ± 0.047 | 0.85 ± 0.065 | 0.839 ± 0.019 |
| CC(=O)Nc1cccc(-n2c(=O)n(C3CC3)c(=O)c3c(Nc4ccc(I)cc4F)n(C)c(=O)c(C)c32)c1 [Trametinib] | 1.07 ± 0.038 | 1.07 ± 0.014 | 1.04 ± 0.027 | 1.02 ± 0.057 | 0.876 ± 0.04 | 0.764 ± 0.029 | 0.719 ± 0.028 | 0.717 ± 0.05 | 0.731 ± 0.023 | 0.666 ± 0.01 | 0.641 ± 0.017 |
| C=CC(=O)N1CCC[C@@H](n2nc(-c3ccc(Oc4ccccc4)cc3)c3c(N)ncnc32)C1 [Ibrutinib] | 1.03 ± 0.038 | 1.08 ± 0.064 | 1.09 ± 0.078 | 1.09 ± 0.079 | 1.05 ± 0.054 | 1.08 ± 0.053 | 1.05 ± 0.1 | 1.05 ± 0.081 | 0.979 ± 0.045 | 0.884 ± 0.035 | 0.587 ± 0.015 |
| Cc1ccc(F)c(NC(=O)Nc2ccc(-c3cccc4[nH]nc(N)c34)cc2)c1 [Linifanib] | 1.06 ± 0.02 | 1.08 ± 0.08 | 1.059 ± 0.0094 | 1.07 ± 0.031 | 1.05 ± 0.029 | 1.08 ± 0.041 | 1.03 ± 0.049 | 1.04 ± 0.054 | 1.06 ± 0.043 | 1.04 ± 0.011 | 0.999 ± 0.054 |
| CC[C@H](Nc1ncnc2[nH]cnc12)c1nc2cccc(F)c2c(=O)n1-c1ccccc1 [Idelalisib] | 1.1 ± 0.062 | 1.11 ± 0.064 | 1.11 ± 0.056 | 1.1 ± 0.065 | 1.09 ± 0.071 | 1.08 ± 0.068 | 1.08 ± 0.051 | 1.06 ± 0.078 | 1.03 ± 0.058 | 0.942 ± 0.074 | 0.901 ± 0.079 |
| CC(C)(C)c1cc(NC(=O)Nc2ccc(-c3cn4c(n3)sc3cc(OCCN5CCOCC5)ccc34)cc2)no1 [Quizartinib] | 1.06 ± 0.037 | 1.05 ± 0.011 | 1.05 ± 0.025 | 1.05 ± 0.02 | 1.06 ± 0.026 | 1.049 ± 0.0031 | 1.03 ± 0.029 | 1.01 ± 0.027 | 0.994 ± 0.036 | 0.796 ± 0.05 | 0.7219 ± 0.0064 |
| CNC(=O)c1cc(Oc2ccc(NC(=O)Nc3ccc(Cl)c(C(F)(F)F)c3)c(F)c2)ccn1 [Regorafenib] | 1.05 ± 0.055 | 1.09 ± 0.052 | 1.07 ± 0.051 | 1.07 ± 0.053 | 1.1 ± 0.059 | 1.1 ± 0.049 | 1.09 ± 0.04 | 1.04 ± 0.014 | 0.96 ± 0.09 | 0.812 ± 0.045 | 0.5087 ± 0.00089 |
| CNC(=O)c1ccc(-c2cnc3ncc(Cc4ccc5ncccc5c4)n3n2)cc1F [Capmatinib] | 1.07 ± 0.048 | 1.05 ± 0.02 | 1.046 ± 0.0098 | 1.07 ± 0.033 | 1.07 ± 0.018 | 1.06 ± 0.018 | 1.06 ± 0.027 | 1.04 ± 0.018 | 1.03 ± 0.018 | 1.03 ± 0.012 | 0.986 ± 0.03 |
